Assay results taken from PMC6723591, “Anti-Inflammatory Cembrane-Type Diterpenoids and Prostaglandins from Soft Coral Lobophytum sarcophytoides” (Marine Drugs, 2019).

Tested on: LPS-activated NO production in RAW264.7 cells
Assay: Inhibition of LPS-activated NO production in RAW264.7 cells (Griess assay)
Type: cell-based
Conditions: Mus musculus, LPS-activated RAW264.7 cells
Description: All isolated compounds (except for 14 with limited amount) were tested for their inhibition activity against LPS-activated NO production in RAW264.7 cells using the Griess assay. […] The structure of PGA2 made a more positive contribution to the anti-inflammatory activity than those of PGB2 (16 vs. 15).
The anti-inflammation activity of the isolated compounds was evaluated according to the reported procedures.

SMILES	IC50 [µM]
CCCCCC(O)C=CC1=C(CC=CCCCC(=O)O)C(=O)CC1 (stereo not drawn) [Compound 10, (5E)-PGB2]	20.4
COc1ccc2c(c1)c(CC(=O)O)c(C)n2C(=O)c1ccc(Cl)cc1 [indomethacin, reference compound]	39.8
CCCCCC(O)CCC1=C(CC=CCCCC(=O)O)C(=O)CC1 (stereo not drawn) [Compound 12, 13,14-dihydro-PGB2]	24.8
CCCCC[C@H](O)/C=C/[C@H]1C=CC(=O)[C@@H]1C/C=C\CCCC(=O)O [Compound 16, PGA2]	7.1

The remaining lines, values ahead:

IC50 [µM]	SMILES
32.1	CC(=O)C=C=C1C(C)(C)C[C@H](OC(C)=O)C[C@@]1(C)O [Compound 9, apo-9′-fucoxanthinone]
17.6	C=C1CC[C@@H](C(C)C)/C=C/[C@@](C)(O)C/C=C/[C@](C)(O)CC[C@@H]1O [Compound 7, (1S,2E,4S,6E,8S,11R)-2,6,12(20)-cembratriene-4,8,11-triol]
26.7	CC1=CC2OCC(C)=C2CCC2(C)OC2CCC(C)(O)C=CC1 (stereo not drawn) [Compound 6]
15.9	CCCCC[C@H](O)/C=C/C1=C(C/C=C\CCCC(=O)O)C(=O)CC1 [Compound 15, PGB2]
16.1	CCCCCC(O)CCC1=C(CC=CCCCC(=O)OC)C(=O)CC1 (stereo not drawn) [Compound 13, 13,14-dihydro-PGB2-Me]
